These results are taken from patent US20050136126A1, “Agent for reduction of scar formation by using wound alkalinization” (CambridgeMED, Inc., priority 2003, published 2005).

On data set [1], the source says: Regarding concentrations and amounts of the various reagents, please refer to Tables 1 and 2 below: […]
In data set [2] the test system is incised wound on the dorsum of adult white rats. Particulars: for deposited collagen (amount, appearance) / collagen fibers (density, structure) vs normal dermis: Trichrome dyeing.
Experimental: On the dorsum of adult white rats, skin near the limbs which are on the same distance from the median line was incised in about 10 mm long. In a sham control group, 0.1 cc distilled water was injected to the dermis of the incised wound and simply sutured.
On 14th and 56th days from the experiments, tissues of ten adult white rats were taken, fixed in 10% neutral buffer formalin for 24 hours, embedded in paraffin throughout the normal tissue treating process.
With a tissue sample, which was cut perpendicularly to the middle of the wound, the width of the scar by use of image analysis program (Image-Pro version 3.0, Microsoft) under 40 magnification was measured, and the differences between the groups were compared. The result of the measurement was confirmed by Student t-test.
On the dorsum of adult white rats, skin near the limbs which are on the same distance from the median line was incised in about 10 mm long. After incision, the control group was simply sutured.
A further data set deals with TGF-β. Description: Experiment of TGF-β inactivation: histology and width of scar after TGF-β injection into incised wound. In kind it is in vivo, bovine. Conditions: 8 weeks; Trichrome dyeing.
[3] abbreviates: 2 weeks, hematoxylin-eosin dyeing, ×40.

Read-outs that look alike come from different tables or passages of the source.

As to `[K+].[OH-]` [KOH, potassium hydroxide], the pH value in data set [1] (0.05 mEq) is on record as 8.56; in data set [1] (0.1 mEq), 9.40; in data set [1] (0.5 mEq), 9.74; in data set [1] (1.0 mEq), 10.51. The “deposited collagen (amount, appearance)” value in data set [2] (2 weeks) is listed as “meager compared to that of the control group”. For the same molecule, the “width of the scar vs control group (histological observation)” value in data set [2] (setting [3]) is “thinner than that of the control group”. Besides, the “collagen fibers (density, structure) vs normal dermis” value (“collagen fibers … vs normal dermis” below) in data set [2] (8 weeks) is recorded as “not different from that of the normal dermis nearby”.
`[Na+].[OH-]` [NaOH, sodium hydroxide]: the pH value in data set [1] (0.05 mEq) is given as 8.55; in data set [1] (0.1 mEq) it was 9.38; in data set [1] (0.5 mEq), 9.87; in data set [1] (1.0 mEq) it was 10.50. The “deposited collagen (amount, appearance)” value in data set [2] (2 weeks) was “meager compared to that of the control group”. Further, the “width of the scar vs control group (histological observation)” value in data set [2] (setting [3]) was “thinner than that of the control group”. Also, the “collagen fibers … vs normal dermis” value in data set [2] (8 weeks) is recorded as “not different from that of the normal dermis nearby”.
For `O=C([O-])O.[Na+]` [sodium bicarbonate], the pH value in data set [1] (0.05 mEq) is given as 8.83; in data set [1] (0.1 mEq) it was 9.22; in data set [1] (0.5 mEq), 9.82; in data set [1] (1.0 mEq) it was 10.36. Besides, the “degree of deposition of inflammatory cells vs control group” value in data set [2] (setting [3]) is recorded as “not much difference”. The “width of the scar vs control group (histological observation)” value in data set [2] (setting [3]) is reported as “thinner than that of the control group”. For the same molecule, the scar appearance result in data set [2] (8 weeks, hematoxylin-eosin dyeing, ×40) is “thin and unnoticeable scar”. Moreover, in data set [2] (8 weeks, hematoxylin-eosin dyeing, ×400), the fibroblast cells result was “Not many of the fibroblast cells were found”.
As to TGF-β, the “collagen fibers … vs normal dermis” value in the data set with TGF-β was “clearly showed the scar”.
